Assays:
[1] = Pharmacokinetics in male rats (LC-MS/MS); format: in vivo; conditions: SD, rat, plasma, iv, 5 mg/kg
Protocol: Male SD rats were intravenous injection with Cpd.51, blood and brain tissues were collected 15 min, 1 h, 4 h, 6 h, 8 h and 24 h after drug administration. Samples were measured by a Shimadzu chromatography system (Shimadzu, Kyoto, Japan) coupled with an AB Sciex triple quadrupole 4500 mass spectrometer (SCIEX Triple Quad™ 4500 LC-MS/MS, Applied Biosystems Sciex, Ontario, Canada) using Analyst 1.4.2 software. A HPLC column (ACQUITY UPLC BEH C18, 2.1 × 50 mm, 1.7 μm) were used. Protein precipitation method was used for detection: 50 μL plasma sample or brain homogenate sample were added with 200 μL acetonitrile containing internal standard for precipitation, then vortexed for 3 min. The supernatant was injected into system for analysis after centrifugation.

SH-SY5Y cells = experiment: Cytotoxicity in SH-SY5Y cells, 24 h incubation; format: cell-based; conditions: Homo sapiens
Nrf2 = Nrf2 (Homo sapiens, UniProt Q14145); experiment: Nrf2 nuclear translocation by immunofluorescence; format: cell-based; conditions: 100 nM, SH-SY5Y cells and primary cortical neurons
Nrf2, sequence (Q14145 whole entry): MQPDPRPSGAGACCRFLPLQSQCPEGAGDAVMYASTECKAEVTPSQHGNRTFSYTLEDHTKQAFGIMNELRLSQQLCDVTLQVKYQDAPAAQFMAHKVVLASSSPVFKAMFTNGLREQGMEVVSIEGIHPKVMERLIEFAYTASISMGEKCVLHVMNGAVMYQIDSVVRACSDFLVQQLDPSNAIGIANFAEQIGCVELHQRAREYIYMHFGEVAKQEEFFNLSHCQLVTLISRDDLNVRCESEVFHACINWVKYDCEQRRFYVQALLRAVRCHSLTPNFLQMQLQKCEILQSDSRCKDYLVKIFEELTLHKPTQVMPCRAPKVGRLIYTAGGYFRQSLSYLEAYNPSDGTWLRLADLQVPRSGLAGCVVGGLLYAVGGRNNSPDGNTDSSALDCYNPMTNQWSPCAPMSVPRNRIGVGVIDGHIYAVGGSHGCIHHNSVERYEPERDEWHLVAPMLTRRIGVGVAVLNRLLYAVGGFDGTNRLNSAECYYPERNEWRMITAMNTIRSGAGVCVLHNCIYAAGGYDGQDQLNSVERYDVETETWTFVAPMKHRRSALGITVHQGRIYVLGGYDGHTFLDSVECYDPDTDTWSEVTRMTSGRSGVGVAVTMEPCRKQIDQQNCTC
Nrf2, sequence (Q16236 whole entry, further chain): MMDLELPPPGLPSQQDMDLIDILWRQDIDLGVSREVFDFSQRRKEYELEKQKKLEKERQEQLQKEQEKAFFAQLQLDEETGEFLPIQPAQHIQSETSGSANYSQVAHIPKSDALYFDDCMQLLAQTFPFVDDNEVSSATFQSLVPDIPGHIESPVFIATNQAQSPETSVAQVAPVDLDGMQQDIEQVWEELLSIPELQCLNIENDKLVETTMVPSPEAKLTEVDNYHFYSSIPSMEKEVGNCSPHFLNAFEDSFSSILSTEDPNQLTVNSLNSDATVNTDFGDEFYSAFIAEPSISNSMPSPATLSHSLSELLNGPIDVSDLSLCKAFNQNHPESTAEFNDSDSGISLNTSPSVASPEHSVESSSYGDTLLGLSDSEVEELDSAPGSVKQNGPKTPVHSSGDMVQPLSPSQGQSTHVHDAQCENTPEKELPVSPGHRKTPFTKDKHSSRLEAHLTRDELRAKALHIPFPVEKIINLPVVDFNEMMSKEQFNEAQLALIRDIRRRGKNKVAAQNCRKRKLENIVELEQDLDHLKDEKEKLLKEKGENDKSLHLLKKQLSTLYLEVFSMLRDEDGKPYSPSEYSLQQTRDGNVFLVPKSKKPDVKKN
Protocol: Immunostaining: cells were fixed with 4% paraformaldehyde for 20 min and then incubated with blocking solution (10% normal goat serum, 0.5% Triton X-100 in PBS) for 1 h at room temperature. Then, the samples were incubated overnight with primary antibodies: anti-Nrf2 (1:200, CST), anti-DHRS3 (1:300, Proteintech), anti-NeuN (1:500, Servicebio). When evaluating the extraction efficiency of primary cortical neurons, we performed co-staining with β-tubulin (1:200, Abcam) and Synaptophysin (1:300, ABclonal). After being washed with PBST three times, the samples were incubated with the corresponding secondary antibodies for 2 h in the dark. The nuclei were stained with DAPI (C1006-200mL, Beyotime, China) for 20 min. Finally, images were captured with a fluorescence microscope. Fluorescence integrated density was measured by ImageJ as previously described.

[2] = Microsomal metabolic stability, human; format: in vitro ADME; conditions: human liver microsomes
Protocol: (§1) The liver microsomal incubation system comprised human, dog, or rat liver microsomal protein (0.75 mg/mL), nicotinamide adenine dinucleotide phosphate (NADPH) generation system, potassium phosphate buffer (0.1 M, pH 7.4), substrate, and inhibitor. The assay was conducted by first preparing a potassium phosphate buffer. Compounds and liver microsomes were then diluted and pre-incubated at 37 °C before initiating the reaction with NADPH. Aliquots were quenched with acetonitrile containing internal standard at specified time points. After sample processing (shaking and centrifugation), the supernatants were analyzed by LC-MS/MS to determine metabolic stability.

DHRS3-Nrf2 interaction = molecular target: T1, DHRS3-Nrf2 interaction (Homo sapiens, UniProt O75911); experiment: GST pull-down of Nrf2 and DHRS3; format: binding; conditions: 100 nM, purified GST-tagged Nrf2 and DHRS3 proteins
T1 construct: purchased Ybio YB710012 (GST-Nrf2); YB765100 (DHRS3)
T1 sequence (O75911 1-302): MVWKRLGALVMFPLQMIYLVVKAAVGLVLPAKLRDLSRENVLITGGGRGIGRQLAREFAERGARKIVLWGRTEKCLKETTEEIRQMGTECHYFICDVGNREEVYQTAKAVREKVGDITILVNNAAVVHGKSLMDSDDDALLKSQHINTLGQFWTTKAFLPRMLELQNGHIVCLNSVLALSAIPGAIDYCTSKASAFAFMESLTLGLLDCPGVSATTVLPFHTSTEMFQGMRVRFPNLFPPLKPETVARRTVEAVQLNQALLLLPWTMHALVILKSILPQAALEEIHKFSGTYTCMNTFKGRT
Protocol: GST-Nrf2 (YB710012, Ybio, China) or GST (Ag0040, Proteintech, China, as control) proteins were mixed with GST Resin (EA-IP-K008, Elabscience Biotechnology, China) for 2 h incubation on the shaker at 4 °C. Subsequently, both Cpd.51 (100 nM) and DHRS3 (YB765100, Ybio, China) were added to the mixture and rotated overnight at 4 °C [40]. Then, following the instructions, the sample buffer was added and heated to 100 °C for 10 min. After completing all steps, the mixture was centrifuged, and the supernatant was collected for western blotting analysis.

primary cortical neurons = experiment: OGD/R damage in primary cortical neurons (CCK-8); format: cell-based, rat
Protocol: To mimic ischemic conditions in vitro, cells were washed with PBS and then cultured for 2.5 h at 37 °C in glucose-free medium under anaerobic conditions (5% hydrogen, 90% nitrogen, and 5% carbon dioxide). OGD process was terminated by transferring cells back to normal glucose-containing medium under normoxic conditions (5% CO₂, 37 °C) and maintained for 24 h.
In the administration group, cells were exposed for 12 h with Cpd.51 prior to OGD. OGD lasted for 2.5 h and the reperfusion lasted for 24 h before the experiment was concluded. Subsequently, cell viability was determined using the cell counting kit-8 (CCK-8, C0039, Beyotime, China). In the experiment to explore the treatment time window, the only difference was the timing of the Cpd.51 treatment, while all other procedures remained unchanged.
Rat primary neuronal cells collected from the cerebral cortices of embryos (embryonic day 18) from pregnant SD rats were isolated and cultured. In brief, the cerebral cortex tissue of […] was removed and cut into small pieces using ophthalmic curved shears. The tissue was repeatedly pipetted after the addition of preheated 0.25% Trypsin digestive solution (BR00083, ABclonal, China). Finally, twice the volume of the culture medium was added and terminated the digestion to complete the extraction of primary cortical cells. […]

[3] = system: ARE-luciferase reporter (Nrf2 activation), Hek-293T cells; experiment: ARE-luciferase reporter gene assay; format: cell-based; conditions: Homo sapiens
Protocol: The Hek-293T cells were cultured in 96-well plates 24 h before transfection with ARE-luciferase reporter plasmid (11548ES03, Yeasen, China) for 48 h according to the manufacturer's instructions. The Firefly luciferase activities was carried out 12 h after the drug treatment, as described by the manufacturer (11412ES81, Yeasen, China).

[4] = Microsomal metabolic stability, dog; format: in vitro ADME; conditions: dog liver microsomes
Protocol: as §1

Structure (SMILES): CC1(C)CCC2(C(=O)NO)CCC3(C)C(C(=O)C=C4C5(C)C=C(C#N)C(=O)C(C)(C)C5CCC43C)C2C1 (centres unmarked) [Cpd.51]
- AUC(0-t) [1]: 991 ± 70 ng·h/mL
- C0 [1]: 3410 ± 45 ng/mL
- Cmax [1]: 2120 ± 75 ng/mL
- MRT last [1]: 50.6 ± 3.24 min
- clearance ([1]; i.v., read-out: CL_obs (converted)): 83.5 mL/min/kg
- IC50 (SH-SY5Y cells): 1980 nM
- Nrf2 nuclear translocation (Nrf2): Nrf2 nuclear translocation within 15 min
- Remainig (%, t = 60 min) [2]: 28.9%
- CLint scaled ([2]; human, pH 7.4): 34 mL/min/kg
- half-life ([2]; human, pH 7.4): 36.7 min
- direct DHRS3-Nrf2 binding (GST pull-down) (DHRS3-Nrf2 interaction): significantly reduced
- efficacy in OGD/R-induced primary neuronal damage (primary cortical neurons): excellent efficacy
- EC50 ([3]; HEK-293T, cells transfected with NC-OE control plasmid): 56.7 nM
- EC50 ([3]; Hek-293T cells, 12 h after drug treatment): 48.1 nM
- Remainig (%, t = 60 min) [4]: 32.9%
- CLint scaled ([4]; dog, pH 7.4): 51 mL/min/kg
- half-life ([4]; dog, pH 7.4): 39.2 min
